Experimental data reported in ChEMBL document CHEMBL1201862, “PubChem BioAssay data set” (2004).
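Step 1: Grow cells in 96-well plates. Step 2: Expose to compound for 48 hours at 5 concentrations. Step 3: Interpolate endpoints linearly; if unreached, use highest concentration. GI50 is the concentration that inhibits growth by half.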 Activity calls are given as the source filed them. Rule as the data show it: active = GI50 up to about 1.1 µM and inactive = higher. Where a SMILES comes first, the peptide text is derived from it. [ ]: non-standard residue; d: D form. Ac5c = NC1(C(=O)O)CCCC1

Experiments:
Assay in all cases: DTP human tumour cell line panel, 48 h
ACHN = tested on: ACHN
DLD-1 = tested on: DLD-1
HCT-116 = tested on: HCT-116
HCT-15 = tested on: HCT-15
HT-29 = tested on: HT-29
KM12 = tested on: KM12
MOLT-4 = tested on: MOLT-4
NCI-H226 = tested on: NCI-H226
NCI-H522 = tested on: NCI-H522
OVCAR-8 = tested on: OVCAR-8
RPMI-8226 = tested on: RPMI-8226
RXF 393 = tested on: RXF 393
SF-539 = tested on: SF-539
SK-OV-3 = tested on: SK-OV-3
TK-10 = tested on: TK-10
U-251 = tested on: U-251
UACC-257 = tested on: UACC-257
DU-145 = tested on: DU-145
MCF7 = tested on: MCF7
SR = tested on: SR

Structure (SMILES)	GI50 (ACHN)	GI50 (DLD-1)	GI50 (HCT-116)	GI50 (HCT-15) [µM]	GI50 (HT-29)	GI50 (KM12)	GI50 (MOLT-4)	GI50 (NCI-H226)	GI50 (NCI-H522)	GI50 (OVCAR-8)	GI50 (RPMI-8226)	GI50 (RXF 393)	GI50 (SF-539)	GI50 (SK-OV-3)	GI50 (TK-10)	GI50 (U-251)	GI50 (UACC-257)	GI50 (DU-145)	GI50 (MCF7)	GI50 (SR)
COC(=O)/C(=N\NC(N)=S)C(C#N)c1ccccc1 (stereo not drawn)	> 100 µM (inactive)	> 100 µM (inactive)	> 100 µM (inactive)	> 100	> 100 µM (inactive)	> 100 µM (inactive)	> 100 µM (inactive)	> 100 µM (inactive)	> 100 µM (inactive)	> 100 µM (inactive)	> 100 µM (inactive)	> 100 µM (inactive)	> 100 µM (inactive)	> 100 µM (inactive)	> 100 µM (inactive)	> 100 µM (inactive)	> 100 µM (inactive)			
Cc1ccc(NC(c2ccccc2)c2ccc3cccnc3c2O)cc1 (stereo not drawn)	3.67 µM (inactive)		3.23 µM (inactive)	2.64	2.9 µM (inactive)	5.02 µM (inactive)	2.37 µM (inactive)	2.7 µM (inactive)	2.17 µM (inactive)	2.64 µM (inactive)	2.61 µM (inactive)	4.4 µM (inactive)	2.33 µM (inactive)	7.91 µM (inactive)	5.22 µM (inactive)	2.82 µM (inactive)	9.79 µM (inactive)	11.1 µM (inactive)	3.14 µM (inactive)	2.44 µM (inactive)
O=C(O)COCC(=O)N(CCOCCN(Cc1ccccc1)C(=O)COCC(=O)O)Cc1ccccc1	> 100 µM (inactive)		> 100 µM (inactive)	> 100	> 100 µM (inactive)	> 100 µM (inactive)	> 100 µM (inactive)	> 100 µM (inactive)	> 100 µM (inactive)	> 100 µM (inactive)	> 100 µM (inactive)	> 100 µM (inactive)	> 100 µM (inactive)	> 100 µM (inactive)	> 100 µM (inactive)	> 100 µM (inactive)	> 100 µM (inactive)	> 100 µM (inactive)	> 100 µM (inactive)	> 100 µM (inactive)
O=C(NCCCC/N=c1/cccccc1NCCCCNC(=O)OCc1ccccc1)OCc1ccccc1	23.2 µM (inactive)	12.6 µM (inactive)	9.98 µM (inactive)	8.05	6.04 µM (inactive)	17.9 µM (inactive)	15.3 µM (inactive)	16.4 µM (inactive)	17.2 µM (inactive)	18.9 µM (inactive)	13 µM (inactive)	17.8 µM (inactive)	16.3 µM (inactive)	20.5 µM (inactive)	19.2 µM (inactive)	16.1 µM (inactive)	15.2 µM (inactive)			
CCCCCC(/C=N/N)C(O)(C(F)(F)F)C(F)(F)F (stereo not drawn)	4.15 µM (inactive)		3.99 µM (inactive)	3.48	3.59 µM (inactive)	4.44 µM (inactive)	> 10 µM (inactive)	2.54 µM (inactive)	5.51 µM (inactive)	3.48 µM (inactive)	> 10 µM (inactive)	7.28 µM (inactive)	3.93 µM (inactive)	5.06 µM (inactive)	7.89 µM (inactive)	3.61 µM (inactive)	5 µM (inactive)	1.9 µM (inactive)	3.22 µM (inactive)	> 10 µM (inactive)
CCCCCCCCCCCCSC(=S)c1c(C)[nH]n(-c2ccccc2)c1=O	16.9 µM (inactive)	2.3 µM (inactive)		1.93	14.3 µM (inactive)		6.61 µM (inactive)	14.9 µM (inactive)		14 µM (inactive)	11.2 µM (inactive)	10.3 µM (inactive)	14.3 µM (inactive)	16.3 µM (inactive)	22.2 µM (inactive)	2.85 µM (inactive)	8.04 µM (inactive)			
NC1(C(=O)NC2(C(=O)O)CCCC2)CCCC1 (H-[Ac5c]-[Ac5c]-OH)	> 100 µM (inactive)		> 100 µM (inactive)	> 100	> 100 µM (inactive)	> 100 µM (inactive)	> 100 µM (inactive)	> 100 µM (inactive)	> 100 µM (inactive)	> 100 µM (inactive)	> 100 µM (inactive)	> 100 µM (inactive)	> 100 µM (inactive)	> 100 µM (inactive)	> 100 µM (inactive)	> 100 µM (inactive)	> 100 µM (inactive)	> 100 µM (inactive)	> 100 µM (inactive)	> 100 µM (inactive)
CCCC[C@H]1C(=O)O[C@H](C)[C@H](NC(=O)c2cccc(NC=O)c2O)C(=O)O[C@@H](C)[C@@H]1OC(=O)CC(C)C [ANTIMYCIN A3]	1.15 µM (inactive)		< 0.01 µM (active)	< 0.01	1.6 µM (inactive)	0.444 µM (active)	< 0.01 µM (active)	0.883 µM (active)	5.93 µM (inactive)	2.05 µM (inactive)	0.109 µM (active)	6.49 µM (inactive)	12.8 µM (inactive)	12 µM (inactive)	6.79 µM (inactive)	0.149 µM (active)	0.04 µM (active)	3.55 µM (inactive)	0.0442 µM (active)	< 0.0347 µM (active)
